Our source for the IC50 values is patent publication US20240390340A1 (INCYTE CORPORATION, priority 2023, published 2024).

Molecules are shown by their SMILES.

The target of one test is KRAS G12V (Homo sapiens, UniProt P01116, G12V). Put plainly: GDP-GTP exchange assay (bodipy-GDP/GppNHp, SOS1), KRAS G12V. It is filed as biochemical. Particulars: KRAS G12V mutant; value for the most potent isomer quoted for certain compounds; read-out: G12V (KRAS G12V exchange assay IC50).
The target in a further test is KRAS G12D (Homo sapiens, UniProt P01116, G12D). Put plainly: GDP-GTP exchange assay (bodipy-GDP/GppNHp, SOS1), KRAS G12D. Type of test: biochemical. Conditions: bodipy-loaded KRAS G12D 2.5 nM, 4 h pre-incubation; value for the most potent isomer quoted for certain compounds; read-out: G12D (KRAS G12D exchange assay IC50).
Sequence of KRAS G12D (P01116 1-188 isoform P01116-2 G12D): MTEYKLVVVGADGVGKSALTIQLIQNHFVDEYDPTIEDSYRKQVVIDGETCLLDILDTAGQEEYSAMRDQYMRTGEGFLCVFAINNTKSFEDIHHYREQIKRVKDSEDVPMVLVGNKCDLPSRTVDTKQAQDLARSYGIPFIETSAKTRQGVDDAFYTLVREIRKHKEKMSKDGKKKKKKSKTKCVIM

Sequence of KRAS G12V (P01116 1-188 isoform P01116-2 G12V): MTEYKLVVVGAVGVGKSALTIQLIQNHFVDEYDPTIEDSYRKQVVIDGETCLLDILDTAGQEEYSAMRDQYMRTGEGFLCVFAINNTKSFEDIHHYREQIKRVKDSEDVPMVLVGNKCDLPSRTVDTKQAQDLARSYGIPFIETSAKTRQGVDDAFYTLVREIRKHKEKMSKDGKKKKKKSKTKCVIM

Usually IC50 stands for the midpoint of a concentration-inhibition curve. With `Cc1nc2c(F)c(-c3cccc(Cl)c3Cl)c(CCC#N)cc2c2c1cc([C@H]1C[C@H](OCc3cccnc3Cl)CN1C(=O)C1CC1)n2[C@H]1[C@H]2CN[C@@H]1C2` [Example 253], the IC50 at KRAS G12V and at KRAS G12D was at most 0.1 µM throughout.
Consider `Cc1csnc1C(C)O[C@H]1C[C@H](c2cc3c(C)nc4c(F)c(-c5cccc(Cl)c5Cl)c(CCC#N)cc4c3n2[C@H]2[C@H]3CN[C@@H]2C3)N(C(=O)C2CC2)[C@@H]1C` (stereo partly drawn) [Example 254], for which the half-inhibitory concentration (IC50) at KRAS G12V and on KRAS G12D was at most 0.1 µM each time.
For the compound `Cc1nc2c(F)c(-c3cccc(Cl)c3Cl)c(CCC#N)cc2c2c1cc([C@H]1C[C@H](OCc3nsc4ccccc34)CN1C(=O)C1CC1)n2[C@H]1[C@H]2CN[C@@H]1C2` [Example 255], the 50% inhibitory concentration (IC50) at KRAS G12V and on KRAS G12D was at most 0.1 µM each time.
Regarding `Cc1nc2c(F)c(-c3cccc(Cl)c3Cl)c(CCC#N)cc2c2c1cc([C@H]1C[C@H](OCc3nsc4cc(F)ccc34)CN1C(=O)C1CC1)n2[C@H]1[C@H]2CN[C@@H]1C2` [Example 256], the IC50 at KRAS G12V and at KRAS G12D was at most 0.1 µM throughout.
On to `Cc1nc2c(F)c(-c3cccc(Cl)c3Cl)c(CCC#N)cc2c2c1cc([C@H]1C[C@H](OCc3ccns3)CN1C(=O)C1CC1)n2[C@H]1[C@H]2CN[C@@H]1C2` [Example 257], for which the concentration for half-maximal inhibition (IC50) on KRAS G12V and on KRAS G12D was at most 0.1 µM in each case.
Consider `Cc1nc2c(F)c(-c3cccc(Cl)c3Cl)c(CCC#N)cc2c2c1cc([C@H]1C[C@H](OCc3cnco3)CN1C(=O)C1CC1)n2[C@H]1[C@H]2CN[C@@H]1C2` [Example 258], for which the concentration for half-maximal inhibition (IC50) on KRAS G12V and on KRAS G12D was at most 0.1 µM throughout.
For the compound `Cc1nc2c(F)c(-c3cccc(Cl)c3Cl)c(CCC#N)cc2c2c1cc([C@H]1C[C@H](OCc3ccnc(C(F)(F)F)c3)CN1C(=O)C1CC1)n2[C@H]1[C@H]2CN[C@@H]1C2` [Example 259], the IC50 at KRAS G12V and on KRAS G12D was at most 0.1 µM in each case.
On to `Cc1nc2c(F)c(-c3cccc(Cl)c3Cl)c(CCC#N)cc2c2c1cc([C@H]1C[C@H](OCc3ccc(C(F)(F)F)nc3)CN1C(=O)C1CC1)n2[C@H]1[C@H]2CN[C@@H]1C2` [Example 260], for which the IC50 at KRAS G12V and on KRAS G12D was at most 0.1 µM throughout.
`COc1cccc(CO[C@H]2C[C@H](c3cc4c(C)nc5c(F)c(-c6cccc(Cl)c6Cl)c(CCC#N)cc5c4n3[C@H]3[C@H]4CN[C@@H]3C4)N(C(=O)C3CC3)C2)n1` [Example 267]: the IC50 at KRAS G12V and at KRAS G12D was at most 0.1 µM in each case.
As to `Cc1nc2c(F)c(-c3cccc(Cl)c3Cl)c(CCC#N)cc2c2c1cc([C@H]1C[C@H](OCc3cccnc3C(F)(F)F)CN1C(=O)C1CC1)n2[C@H]1[C@H]2CN[C@@H]1C2` [Example 268], the IC50 at KRAS G12V and at KRAS G12D was at most 0.1 µM each time.
Consider `Cc1nc2c(F)c(-c3cccc(Cl)c3Cl)c(CCC#N)cc2c2c1cc([C@H]1C[C@H](n3cc(CC4CCNC4=O)nn3)CN1C(=O)C1CC1)n2[C@H]1[C@H]2CN[C@@H]1C2` (stereo partly drawn) [Example 269], for which the IC50 on KRAS G12V and at KRAS G12D was at most 0.1 µM each time.
Regarding `CC(=O)N(C)Cc1cn([C@H]2C[C@H](c3cc4c(C)nc5c(F)c(-c6cccc(Cl)c6Cl)c(CCC#N)cc5c4n3[C@H]3[C@H]4CN[C@@H]3C4)N(C(=O)C3CC3)C2)nn1` [Example 271], the half-maximal inhibitory concentration (IC50) at KRAS G12V and at KRAS G12D was at most 0.1 µM each time.
Take `CC(=O)NC(C)(C)c1cn([C@H]2C[C@H](c3cc4c(C)nc5c(F)c(-c6cccc(Cl)c6Cl)c(CCC#N)cc5c4n3[C@H]3[C@H]4CN[C@@H]3C4)N(C(=O)C3CC3)C2)nn1` [Example 272]: the IC50 on KRAS G12V and on KRAS G12D was at most 0.1 µM throughout.
On to `Cc1nc2c(F)c(-c3cccc(Cl)c3Cl)c(CCC#N)cc2c2c1cc([C@H]1C[C@H](n3cc(C4CNC(=O)C4)nn3)CN1C(=O)C1CC1)n2[C@H]1[C@H]2CN[C@@H]1C2` (stereo partly drawn) [Example 273], for which the IC50 at KRAS G12V and at KRAS G12D was at most 0.1 µM in each case.
As for `Cc1nc2c(F)c(-c3cccc(Cl)c3Cl)c(CCC#N)cc2c2c1cc([C@H]1C[C@H](n3cc([C@]45C[C@H](CN4)C5)nn3)CN1C(=O)C1CC1)n2[C@H]1[C@H]2CN[C@@H]1C2` [Example 274], the IC50 at KRAS G12V and on KRAS G12D was at most 0.1 µM throughout.
